For experiment [1], the system named is Herpes Simplex type 1: strain F1. Briefly: microbe, parasite or virus in culture. In kind it is cell-based, Herpes Simplex virus type 1. The conditions noted are these: Herpes Simplex type 1 strain F1, HEp-2 cell culture.
The subject of a further experiment is Hepatitis B Virus (HBV). Briefly: HBV replication in 2.2.15 cell culture, 9-day assay. In kind it is cell-based. The conditions noted are these: for EC50 / EC90: Hepatitis B virus, 2.2.15 cells. The procedure: Anti-Hepatitis B Virus (HBV) analyses and an assessment of cytotoxicity were performed in a 9-day assay in the chronically-producing HBV human hepatoblastoma cell line, 2.2.15, as previously described (Korba, B. E. & Gerin, J. L. Use of a standardized cell culture assay to assess activities of nucleosides analogues against hepatitis B virus replication. Antivir. Res. 19, 55-70 (1992)).
Values presented (±standard deviations [S.D.]) were calculated by linear regression analysis using data combined from all treated cultures. S.D. were calculated using the standard error of regression generated from linear regression analyses (QuattroPro™). EC50, EC90=drug concentration at which a 2-fold, or a 10-fold depression of HBV DNA (relative to the average levels in untreated cultures), respectively, was observed, CC50=drug concentration at which a 2-fold depression of neutral red dye uptake (relative to the average levels in untreated cultures) was observed, The EC90 values were used for the calculation of the Selectivity Indexes [S.I.] since at least a 3-fold depression of HBV levels is typically required to achieve statistical significance in this assay system. HBV R.I.=intracellular HBV DNA replication intermediate.

The subject of the next experiment is Giardia intestinalis. In words: Antiparasite test by conventional means. The conditions noted are these: at concentrations of at least 50 μg/mL. In kind it is cell-based. The protocol:
(§1) The above identified compounds according to Formula (IV) were tested by conventional means against Trichomis vaginalis, Giardia Intestinalis, and Trypanosoma brucei.

For another experiment, the system named is Trichomonas vaginalis. Briefly: Antiparasite test by conventional means. The experiment is classed as cell-based. The conditions noted are these: at concentrations of at least 50 μg/mL. The protocol: as §1
For a further experiment, the system named is Trypanosoma brucei. In words: Antiparasite test by conventional means. The conditions noted are these: at concentrations of at least 50 μg/mL. In kind it is cell-based. The procedure:
as §1

Like-named read-outs stand apart in the source and are kept apart here. Bounds are passed on as bounds.

On to `CC(=O)Oc1c(C)cccc1C(=O)Nc1ncc(Br)s1` [RM-4803, 2-(acetolyloxy)-3-methyl-N-(5-bromo-2-thiazolyl)benzamide], for which the “SI (selectivity index) = CC50/EC50” value in experiment [1] (CC50 by MTT) is 3. Further, the EC50 (usually the concentration giving half of the maximal effect) in experiment [1] (Human alphaherpesvirus 1) is 5.6 µM; in the experiment on Hepatitis B Virus (HBV) (2-fold depression of HBV DNA, read-out: Extracellular Virion DNA EC50), 6.3 ± 0.7 µM; in the experiment on Hepatitis B Virus (HBV) (intracellular HBV DNA replication intermediate, 2-fold depression, read-out: Intracellular HBV R.I. EC50), 12 ± 1.5 µM. The EC90 (as a rule, the concentration needed for an effect of 90%) in the experiment with Hepatitis B Virus (HBV) (10-fold depression of HBV DNA, read-out: Extracellular Virion DNA EC90) came out at 15 ± 1.1 µM; in the experiment on Hepatitis B Virus (HBV) (intracellular HBV DNA replication intermediate, 10-fold depression, read-out: Intracellular HBV R.I. EC90) it was 50 ± 5.5 µM. In addition, in the experiment on Hepatitis B Virus (HBV) (calculated with EC90 values (CC50/EC90), HBV R.I.), the “Selectivity Index R.I.” value is on record as more than 20. In the experiment on Hepatitis B Virus (HBV) (calculated with EC90 values (CC50/EC90), virion DNA), the “Selectivity Index Virion” value is reported as more than 67. The antiparasite activity result in the experiment on Giardia intestinalis, with Trichomonas vaginalis and with Trypanosoma brucei was “failed to exhibit antiparasite activitity” throughout.

(Values after patent US7285567B2, “Halogenated benzamide derivatives” (Romark Laboratories, L.C., priority 2005, dated 2007).)
